Measured values from BigSolDB 2.1.

In the case of NC(=O)CS(=O)C(c1ccccc1)c1ccccc1 (stereo not given), the solubility (mole fraction) (in 2-butanone, 281 K) is reported as 0.00114, the solubility (mole fraction) (in 2-butanone, 304.7 K) is reported as 0.00253 and the solubility (mole fraction) (in 2-butanone, 307.3 K) is reported as 0.00278. The solubility (mole fraction) (in 2-butanone, 314.1 K) was 0.00354, the solubility (mole fraction) (in 2-butanone, 317.8 K) was 0.00401 and the solubility (mole fraction) (in 2-butanone, 319.6 K) was 0.00429. For the same molecule, the solubility (mole fraction) (in 2-butanone, 329.4 K) was 0.0059, the solubility (mole fraction) (in 2-butanone, 332.8 K) was 0.00661 and the solubility (mole fraction) (in DMF, 280.7 K) was 0.0552. It also gave a solubility (mole fraction) (in DMF, 283.3 K) of 0.0579, a solubility (mole fraction) (in DMF, 290.8 K) of 0.0656 and a solubility (mole fraction) (in DMF, 293.6 K) of 0.0702. It also gave a solubility (mole fraction) (in DMF, 300.1 K) of 0.0784, a solubility (mole fraction) (in DMF, 311.5 K) of 0.0926 and a solubility (mole fraction) (in DMF, 318 K) of 0.103. It also gave a solubility (mole fraction) (in DMF, 320.4 K) of 0.108, a solubility (mole fraction) (in acetone, 278.2 K) of 0.00141 and a solubility (mole fraction) (in acetone, 284 K) of 0.00175. For the same molecule, the solubility (mole fraction) (in acetone, 290.4 K) was 0.0021, the solubility (mole fraction) (in acetone, 294.1 K) was 0.00239 and the solubility (mole fraction) (in acetone, 303.2 K) was 0.00321. The solubility (mole fraction) (in acetone, 307.5 K) was 0.00371, the solubility (mole fraction) (in acetone, 311.8 K) was 0.00426 and the solubility (mole fraction) (in acetone, 320.2 K) was 0.0057. For the same molecule, the solubility (mole fraction) (in acetonitrile, 286.3 K) was 0.000684, the solubility (mole fraction) (in acetonitrile, 293.1 K) was 0.000981 and the solubility (mole fraction) (in acetonitrile, 297.9 K) was 0.00132. It also gave a solubility (mole fraction) (in acetonitrile, 301.4 K) of 0.00163, a solubility (mole fraction) (in acetonitrile, 304.4 K) of 0.00195 and a solubility (mole fraction) (in acetonitrile, 311.1 K) of 0.00292. For the same molecule, the solubility (mole fraction) (in acetonitrile, 322 K) was 0.00578, the solubility (mole fraction) (in acetonitrile, 326.4 K) was 0.00729 and the solubility (mole fraction) (in ethanol, 280.6 K) was 0.000668. The solubility (mole fraction) (in ethanol, 285.2 K) was 0.000755, the solubility (mole fraction) (in ethanol, 288.4 K) was 0.000917 and the solubility (mole fraction) (in ethanol, 294.2 K) was 0.00111. The solubility (mole fraction) (in ethanol, 304.2 K) was 0.00167, the solubility (mole fraction) (in ethanol, 313.7 K) was 0.00253 and the solubility (mole fraction) (in ethanol, 322.8 K) was 0.00377. For the same molecule, the solubility (mole fraction) (in ethanol, 330 K) was 0.00527, the solubility (mole fraction) (in ethyl acetate, 273.2 K) was 0.00046 and the solubility (mole fraction) (in ethyl acetate, 288 K) was 0.000602. The solubility (mole fraction) (in ethyl acetate, 291.9 K) was 0.000709, the solubility (mole fraction) (in ethyl acetate, 298 K) was 0.000844 and the solubility (mole fraction) (in ethyl acetate, 303.5 K) was 0.001. The solubility (mole fraction) (in ethyl acetate, 312.3 K) was 0.00141, the solubility (mole fraction) (in ethyl acetate, 322.2 K) was 0.002 and the solubility (mole fraction) (in ethyl acetate, 328.3 K) was 0.00255. For the same molecule, the solubility (mole fraction) (in isopropanol, 283.2 K) was 0.000603, the solubility (mole fraction) (in isopropanol, 287.9 K) was 0.00086 and the solubility (mole fraction) (in isopropanol, 295.8 K) was 0.00106. The solubility (mole fraction) (in isopropanol, 299.8 K) was 0.00129, the solubility (mole fraction) (in isopropanol, 308.5 K) was 0.00193 and the solubility (mole fraction) (in isopropanol, 317.6 K) was 0.00291. For the same molecule, the solubility (mole fraction) (in isopropanol, 323.5 K) was 0.00388, the solubility (mole fraction) (in isopropanol, 331.5 K) was 0.00607 and the solubility (mole fraction) (in methanol, 277.9 K) was 0.00189. The solubility (mole fraction) (in methanol, 289 K) was 0.0028, the solubility (mole fraction) (in methanol, 297.5 K) was 0.00394 and the solubility (mole fraction) (in methanol, 301.8 K) was 0.00459. The solubility (mole fraction) (in methanol, 308.4 K) was 0.0059, the solubility (mole fraction) (in methanol, 314 K) was 0.00744 and the solubility (mole fraction) (in methanol, 318.2 K) was 0.00891. For the same molecule, the solubility (mole fraction) (in methanol, 319.7 K) was 0.00945, the solubility (mole fraction) (in n-propanol, 284.5 K) was 0.001 and the solubility (mole fraction) (in n-propanol, 291.9 K) was 0.00131. The solubility (mole fraction) (in n-propanol, 299 K) was 0.00184, the solubility (mole fraction) (in n-propanol, 300.4 K) was 0.00195 and the solubility (mole fraction) (in n-propanol, 314.3 K) was 0.00362. For the same molecule, the solubility (mole fraction) (in n-propanol, 316.9 K) was 0.00411, the solubility (mole fraction) (in n-propanol, 319.9 K) was 0.00475 and the solubility (mole fraction) (in n-propanol, 324.8 K) was 0.00585. It also gave a solubility (mole fraction) (in water, 290.7 K) of 5.4e-05, a solubility (mole fraction) (in water, 297.5 K) of 8.1e-05 and a solubility (mole fraction) (in water, 300.5 K) of 8.8e-05. For the same molecule, the solubility (mole fraction) (in water, 301.7 K) was 0.000103, the solubility (mole fraction) (in water, 309.5 K) was 0.00013 and the solubility (mole fraction) (in water, 312.9 K) was 0.000177. For the same molecule, the solubility (mole fraction) (in water, 320.8 K) was 0.000242 and the solubility (mole fraction) (in water, 323.4 K) was 0.000281.
